Molecular target: T1, HSA (human serum albumin) (Homo sapiens, UniProt P02768)
T1 construct: gene ALB; commercial HSA (Shanghai Yuanye); amine-coupled to CM5 chip
Assay: SPR (Biacore T200, immobilized protein on CM5)
Type: binding

T1 sequence (P02768 25-609): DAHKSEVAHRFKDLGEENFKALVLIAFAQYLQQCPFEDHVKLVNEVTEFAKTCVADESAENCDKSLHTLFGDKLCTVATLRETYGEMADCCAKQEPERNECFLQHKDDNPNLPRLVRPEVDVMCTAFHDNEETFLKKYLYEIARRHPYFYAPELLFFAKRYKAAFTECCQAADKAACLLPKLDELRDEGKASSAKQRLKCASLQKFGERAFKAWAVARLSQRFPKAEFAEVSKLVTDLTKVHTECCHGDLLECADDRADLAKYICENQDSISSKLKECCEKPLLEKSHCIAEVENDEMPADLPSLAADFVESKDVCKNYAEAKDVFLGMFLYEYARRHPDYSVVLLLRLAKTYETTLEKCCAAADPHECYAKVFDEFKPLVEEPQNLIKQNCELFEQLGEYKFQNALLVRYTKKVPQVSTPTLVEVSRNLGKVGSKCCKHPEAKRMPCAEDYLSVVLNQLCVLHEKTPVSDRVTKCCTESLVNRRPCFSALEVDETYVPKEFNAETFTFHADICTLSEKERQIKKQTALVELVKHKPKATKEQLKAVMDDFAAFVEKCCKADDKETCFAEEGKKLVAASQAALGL

For `C=Cc1c(C)c2cc3nc(c(CC(=O)O)c4[nH]c(cc5nc(cc1[nH]2)C(C)=C5CC)c(C)c4C(=O)O)[C@@H](CCC(=O)O)[C@@H]3C` [Ce6], which Kd is on record?
The Kd was 2120 nM.

From PMC12133102, “Deciphering the Physical Binding Mechanism of Enzyme–Photosensitizer Facilitates Catalysis-Augmented Photodynamic Therapy” (Research, 2025)
